Biological target: Mitogen-activated protein kinase kinase kinase kinase 1 (Homo sapiens, UniProt Q92918)
Assay: Lantha Binding Assay
Description: For the binding assay, 4 μL 2×HPK1 and Eu-anti-GST antibody were added to each well of the assay plate using a Multidrop reagent dispenser. The solutions were incubated in a 23 C incubator for 1 h. […] The solutions were again incubated in a 23° C. incubator for 1 h.

Sequence of Mitogen-activated protein kinase kinase kinase kinase 1 (Q92918 whole entry): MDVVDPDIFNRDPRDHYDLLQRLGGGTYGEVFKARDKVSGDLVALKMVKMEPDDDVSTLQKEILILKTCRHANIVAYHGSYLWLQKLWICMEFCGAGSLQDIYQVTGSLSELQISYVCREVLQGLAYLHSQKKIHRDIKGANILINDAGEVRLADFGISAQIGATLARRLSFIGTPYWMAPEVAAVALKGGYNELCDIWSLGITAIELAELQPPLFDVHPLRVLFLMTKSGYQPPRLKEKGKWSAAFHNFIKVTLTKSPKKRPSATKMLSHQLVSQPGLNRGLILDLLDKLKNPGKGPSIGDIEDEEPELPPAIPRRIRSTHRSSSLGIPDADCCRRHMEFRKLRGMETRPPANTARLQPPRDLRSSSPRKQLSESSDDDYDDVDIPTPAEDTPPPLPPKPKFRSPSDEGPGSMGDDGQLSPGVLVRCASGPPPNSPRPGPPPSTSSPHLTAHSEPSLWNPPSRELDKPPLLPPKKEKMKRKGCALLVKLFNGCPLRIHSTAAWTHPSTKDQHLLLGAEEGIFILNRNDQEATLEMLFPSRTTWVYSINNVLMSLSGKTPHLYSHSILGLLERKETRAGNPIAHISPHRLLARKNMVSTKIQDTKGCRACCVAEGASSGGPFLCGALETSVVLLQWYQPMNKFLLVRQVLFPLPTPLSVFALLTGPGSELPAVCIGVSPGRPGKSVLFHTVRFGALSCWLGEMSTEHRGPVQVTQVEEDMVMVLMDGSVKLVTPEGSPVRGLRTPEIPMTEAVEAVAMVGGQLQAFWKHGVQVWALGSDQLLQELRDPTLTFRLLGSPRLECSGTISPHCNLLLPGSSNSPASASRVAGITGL

| Ki [nM] | SMILES |
| --- | --- |
| 84 | CCn1cc(-c2cc(N)c3nnc(NC(=O)[C@@H]4C[C@@H]4F)cc3c2)cn1 [US20240368170, Compound 1a] |
| 21 | CC(C)NC(=O)Nc1cc2cc(-c3cnn(C)c3)cc(N)c2nn1 [US20240368170, Compound 8] |

From BindingDB's records for patent US20240368170 (Genentech, 2024)
